Experimental data from patent US9376432B2, “Use of VEGFR-3 inhibitors for treating hepatocellular carcinoma” (Sanofi, priority 2012, dated 2016).

Legend:
primary lymphatic cells = assay: VEGFC- and VEGFD-induced proliferation of primary lymphatic cells; assay type: cell-based; settings: read-out: IC50, inhibition of VEGFC- and VEGFD-induced proliferation
VEGFR-1 = VEGFR-1 (Homo sapiens, UniProt P17948); settings: same assays as VEGFR-3; disclosed in the '145 application; cited from earlier work
Sequence of VEGFR-1 (P17948 27-1338): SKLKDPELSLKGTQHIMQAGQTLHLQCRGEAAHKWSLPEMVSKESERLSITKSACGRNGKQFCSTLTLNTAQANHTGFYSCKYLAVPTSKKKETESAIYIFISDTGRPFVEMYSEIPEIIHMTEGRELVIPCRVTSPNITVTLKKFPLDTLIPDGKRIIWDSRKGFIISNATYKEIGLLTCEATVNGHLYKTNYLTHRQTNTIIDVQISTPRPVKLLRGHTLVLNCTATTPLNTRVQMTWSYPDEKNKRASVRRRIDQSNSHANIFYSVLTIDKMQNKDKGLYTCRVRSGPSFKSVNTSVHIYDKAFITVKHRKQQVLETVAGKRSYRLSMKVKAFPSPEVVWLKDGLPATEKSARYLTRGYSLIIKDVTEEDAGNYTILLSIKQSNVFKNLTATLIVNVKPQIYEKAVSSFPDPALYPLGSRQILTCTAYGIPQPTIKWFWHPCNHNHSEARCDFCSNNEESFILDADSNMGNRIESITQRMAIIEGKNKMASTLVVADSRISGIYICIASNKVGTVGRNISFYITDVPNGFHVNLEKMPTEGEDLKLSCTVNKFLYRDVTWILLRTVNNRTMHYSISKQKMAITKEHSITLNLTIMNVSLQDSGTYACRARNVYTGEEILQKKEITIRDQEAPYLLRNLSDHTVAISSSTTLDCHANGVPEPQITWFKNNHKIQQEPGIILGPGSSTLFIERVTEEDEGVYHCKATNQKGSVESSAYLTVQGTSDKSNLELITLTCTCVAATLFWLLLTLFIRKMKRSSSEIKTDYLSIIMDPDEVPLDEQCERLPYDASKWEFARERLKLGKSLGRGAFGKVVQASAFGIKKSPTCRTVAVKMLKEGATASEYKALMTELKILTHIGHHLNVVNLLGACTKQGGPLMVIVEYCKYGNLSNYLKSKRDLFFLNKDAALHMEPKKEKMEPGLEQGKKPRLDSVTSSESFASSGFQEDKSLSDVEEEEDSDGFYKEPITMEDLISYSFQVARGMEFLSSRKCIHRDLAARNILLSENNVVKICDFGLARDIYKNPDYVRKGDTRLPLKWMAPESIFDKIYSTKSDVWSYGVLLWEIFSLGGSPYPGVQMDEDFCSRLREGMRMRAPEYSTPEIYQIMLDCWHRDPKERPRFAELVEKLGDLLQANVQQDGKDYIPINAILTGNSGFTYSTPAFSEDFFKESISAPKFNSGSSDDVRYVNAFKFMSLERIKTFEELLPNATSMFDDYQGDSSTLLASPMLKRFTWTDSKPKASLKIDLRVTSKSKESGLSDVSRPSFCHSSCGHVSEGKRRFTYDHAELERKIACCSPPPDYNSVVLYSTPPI

VEGFR-3 = VEGFR-3 (Homo sapiens, UniProt P35916); settings: disclosed in the '145 application; read-out: IC50, inhibition of recombinant VEGFR-3 TK activity and autophosphorylation in HEK cells; cited from earlier work
Sequence of VEGFR-3 (P35916 25-1363): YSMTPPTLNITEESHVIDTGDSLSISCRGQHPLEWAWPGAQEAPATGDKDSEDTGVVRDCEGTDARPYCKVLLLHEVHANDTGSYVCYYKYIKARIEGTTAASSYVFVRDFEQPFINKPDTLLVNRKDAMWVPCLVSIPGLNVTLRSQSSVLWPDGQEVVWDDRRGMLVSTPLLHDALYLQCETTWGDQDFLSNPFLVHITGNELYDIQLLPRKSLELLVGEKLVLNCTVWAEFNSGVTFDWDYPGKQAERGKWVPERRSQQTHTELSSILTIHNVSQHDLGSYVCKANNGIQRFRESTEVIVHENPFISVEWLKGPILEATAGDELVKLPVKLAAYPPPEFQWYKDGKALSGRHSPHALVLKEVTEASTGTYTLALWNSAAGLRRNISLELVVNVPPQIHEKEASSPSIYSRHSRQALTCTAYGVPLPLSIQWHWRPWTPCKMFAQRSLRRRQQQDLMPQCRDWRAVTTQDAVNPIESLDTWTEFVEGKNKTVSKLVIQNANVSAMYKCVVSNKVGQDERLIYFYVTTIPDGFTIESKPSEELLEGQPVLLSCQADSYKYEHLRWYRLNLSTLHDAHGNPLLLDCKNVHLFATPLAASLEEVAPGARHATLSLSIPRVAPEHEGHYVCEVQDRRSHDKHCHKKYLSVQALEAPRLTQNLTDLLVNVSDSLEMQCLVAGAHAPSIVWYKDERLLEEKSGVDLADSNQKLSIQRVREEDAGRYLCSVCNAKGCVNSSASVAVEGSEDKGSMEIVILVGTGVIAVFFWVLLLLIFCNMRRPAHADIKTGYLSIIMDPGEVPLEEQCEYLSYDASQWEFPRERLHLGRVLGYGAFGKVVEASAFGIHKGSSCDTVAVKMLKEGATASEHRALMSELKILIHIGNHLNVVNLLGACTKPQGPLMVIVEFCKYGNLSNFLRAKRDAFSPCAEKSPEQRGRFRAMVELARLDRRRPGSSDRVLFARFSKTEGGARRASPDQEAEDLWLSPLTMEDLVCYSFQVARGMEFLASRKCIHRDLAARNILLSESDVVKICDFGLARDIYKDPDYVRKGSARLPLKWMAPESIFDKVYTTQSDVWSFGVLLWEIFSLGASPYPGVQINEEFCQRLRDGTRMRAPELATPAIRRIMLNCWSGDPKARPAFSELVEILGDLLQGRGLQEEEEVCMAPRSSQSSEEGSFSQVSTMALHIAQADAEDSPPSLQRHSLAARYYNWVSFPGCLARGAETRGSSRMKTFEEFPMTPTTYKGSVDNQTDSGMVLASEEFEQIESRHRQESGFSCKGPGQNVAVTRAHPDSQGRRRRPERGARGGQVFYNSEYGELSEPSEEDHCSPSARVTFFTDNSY

[1] = tested on: HepG2 cell line orthotopic xenograft; assay: HepG2 cell line orthotopic xenograft model (murine hepatocarcinoma xenograft); assay type: in vivo, SCID mice; settings: 100 mg/kg once a day
Description: The in vivo anti-tumor efficacy of the compound of Example 1 in HepG2 cell line orthotopic xenograft model was evaluated. The HepG2 cells were injected into liver of SCID mice (obtained from ATCC) and mice were randomized into 2 groups 14 days post cell injection: a control group treated with vehicle and the compound of Example 1-treated group. Treatment was performed once a day at 100 mg/kg in methyl cellulose tween as vehicle.
The tumor size was measured by weighting the left lobe with the tumor at day 28. […] Normal liver lobe was also measured and deduced from the lobe of tumor bearing mice. […] (See FIG. 1).

[2] = tested on: DEN-induced hepatocarcinoma; assay: DEN chemical-induced hepatocarcinoma in mice; assay type: in vivo, male C3H mice
Description: DEN (N-diethynitrosamine)-induced mouse model has been validated as a representative model for human HCC Wu et al. J. Cancer Res. Clin. Oncol. (2009) 135. 969-981; Chuang et al. Carcinogenesis (2000) 21; 331-335).
Tumor initiation was achieved by a single intra peritoneal injection of 10 mg/kg of N-diethylnitrosamine (DEN) in male C3H mice (Charles river laboratories France) at the age of 5 weeks.
Mice developed tumors in the liver from the 7th month post DEN administration but the incidence reached 100% at the 12th month. The compound of Example 1 was daily administrated P.O. (orally) after suspension in methyl cellulose tween, between the 10th and 12th month after DEN administration.
The body weight was evaluated each week during treatment and on the 12th months. Mice were killed by overdose of sodium pentobarbital, and livers were removed and weighted. The number of tumors per liver was counted and the tumor volume was measured with calipers. The tumor volume V was calculated using formula V=0.52×a^2×b, where “a” represents the smallest tumor diameter and “b” the largest tumor diameter.

[3] = tested on: 85 different kinases and 107 receptors, enzymes and ion channels; assay: selectivity versus other kinases, receptors, enzymes and ion channels
hepatocellular carcinoma = settings: HCC patients; literature; cited from earlier work
[4] = daily P.O. between 10th and 12th month after DEN, vs vehicle group
[5] = late treatment, 10th to 12th month after DEN, compared to same parameters at the 10th month

selectivity for VEGFR-3 compared to other tested kinases, receptors, enzymes and ion channels [3] | Structure (SMILES) | IC50 (primary lymphatic cells) | IC50 (VEGFR-1) | IC50 (VEGFR-3) | decrease of mean weight of the liver lobe bearing the tumor ([1]; from 14 days post cell injection, Day 28 post cell injection, vs vehicle, p=0.001) | reduction of tumor weight (normal liver lobe weight deduced) ([1]; Day 28, normal liver lobe deduced from lobe of tumor bearing mice) | total liver weight ([2]; daily P.O. between 10th and 12th month after DEN) | reduction of number of tumors/liver [2, 4] | reduction of total tumor volume [2, 4] | formation of new loci compared to the 10th month [2, 5] | tumor development compared to the 10th month [2, 5] | OS (overall survival) gain over placebo (hepatocellular carcinoma)
highly selective for VEGFR-3 | CCn1c(N)c(-c2ncc[nH]2)c(=O)c2ccc(C#C[C@@](C)(O)COC)nc21 [Example 1, 2-Amino-1-ethyl-7-((3R)-3-hydroxy-4-methoxy-3-methyl-but-1-ynyl)-3-(1H-imidazol-2-yl)-1H-[1,8]-naphthyridin-4-one] | 10 to 15 nM | > 1000 nM | ~25 nM | 34% | 62% | reduced and almost normalized | 50% | 85% | prevented the formation of new loci | completely blocked tumor development | 
 | CCn1c(N)c(-c2ncc[nH]2)c(=O)c2ccc(C#C[C@@](C)(O)CO)nc21 [Example 2, 2-Amino-7-((3R)3,4-dihydroxy-3-methyl-but-1-ynyl)-1-ethyl-3-(1H-imidazol-2-yl)-1,8-naphthyridin-4(1H)-one] |  |  | ~47 nM |  |  |  |  |  |  |  | 
 | CNC(=O)c1cc(Oc2ccc(NC(=O)Nc3ccc(Cl)c(C(F)(F)F)c3)cc2)ccn1 [Sorafenib] |  |  |  |  |  |  |  |  |  |  | 2-3 months
